Among the test systems are SW-620 colon; OVCAR-8 ovarian; NCI-H23 lung; KM12 colon; HCT-15 colon; RPMI-8226 leukemia; MALME-3M melanoma; NCI/ADR-RES ovarian; DU-145 prostate; T-47D breast.
Common to all, as to test: NCI anticancer screen, dose series, 48 h

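Exposure lasted 48 hours, with cells grown in 96-well plates and compounds tested at five concentrations. GI50 = concentration required for 50% inhibition of growth. TGI: concentration producing complete growth inhibition.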

In the case of `CCOc1ccc(NC(=O)CC2C(=O)Nc3ccccc3S2(=O)=O)cc1` (stereo unspecified), the TGI in the assay with SW-620 colon, with OVCAR-8 ovarian, in the assay on NCI-H23 lung, in the assay with KM12 colon, in the assay on HCT-15 colon and in the assay on RPMI-8226 leukemia was greater than 100 µM each time. Also, in the assay on MALME-3M melanoma, the TGI is greater than 100 µM.
As for `C=CCc1cc(OC)c2c(c1)C(OC)CC(c1ccc(OC)c(OC)c1)O2` (stereo unspecified), the TGI in the assay on SW-620 colon, with OVCAR-8 ovarian, in the assay on KM12 colon, in the assay on HCT-15 colon, in the assay on RPMI-8226 leukemia and in the assay with MALME-3M melanoma was greater than 100 µM throughout.
Regarding `CCSc1c2ccccc2c(-c2nc(F)nc(F)n2)n1CCc1ccccc1`, the TGI in the assay on SW-620 colon, in the assay with NCI-H23 lung, with KM12 colon, in the assay on HCT-15 colon, in the assay with RPMI-8226 leukemia and with MALME-3M melanoma was greater than 100 µM throughout.
On to `Nc1ncnc2c1ncn2C1CC(OCc2ccccc2[N+](=O)[O-])C(CO)O1` (stereo unspecified), for which the TGI in the assay on SW-620 colon, with OVCAR-8 ovarian, in the assay on NCI-H23 lung, in the assay on KM12 colon, with HCT-15 colon and in the assay on RPMI-8226 leukemia was greater than 50 µM each time. Also, in the assay on MALME-3M melanoma, the TGI is greater than 50 µM.
`CC1(c2ccc(Cl)cc2)C2C(=O)NC(=O)C1C(=O)NC2=O` (stereo unspecified): the TGI with SW-620 colon, with OVCAR-8 ovarian, with NCI-H23 lung, in the assay with KM12 colon, in the assay with HCT-15 colon and in the assay on RPMI-8226 leukemia was greater than 100 µM in each case. The compound further returned a TGI in the assay with MALME-3M melanoma greater than 100 µM.
As for `CCN1CCN(C(=O)[C@]23CCC(C)(C)C[C@@H]2C2=CC[C@@H]4[C@@]5(C)C/C(=C/c6ccncc6)C(=O)C(C)(C)[C@@H]5CC[C@@]4(C)[C@]2(C)CC3)CC1`, the GI50 was 1.48 µM in the assay on SW-620 colon; 1.63 µM in the assay with NCI-H23 lung; 1.47 µM with KM12 colon; 1.48 µM with NCI/ADR-RES ovarian; 1.25 µM with HCT-15 colon; 1.25 µM with RPMI-8226 leukemia. Besides, the GI50 with DU-145 prostate was 1.67 µM; with MALME-3M melanoma, 1.65 µM. The TGI came to 3.14 µM in the assay on SW-620 colon; 3.16 µM with NCI-H23 lung; 2.98 µM in the assay with KM12 colon; 3.17 µM with NCI/ADR-RES ovarian; 2.73 µM in the assay with HCT-15 colon; 4.64 µM in the assay with RPMI-8226 leukemia. Moreover, the TGI was 3.19 µM in the assay with DU-145 prostate and 3.14 µM with MALME-3M melanoma.
For the compound `CCOC(=O)C1(C)CCCCC(=O)N1` (stereo unspecified), the TGI in the assay on SW-620 colon, with OVCAR-8 ovarian, in the assay on NCI-H23 lung, in the assay with HCT-15 colon and with MALME-3M melanoma was greater than 100 µM throughout.
For the compound `COC(=O)C=Cc1ccc2nncnc2c1` (mixture of isomers), the TGI in the assay with SW-620 colon was greater than 100 µM; in the assay on OVCAR-8 ovarian, greater than 100 µM; in the assay with KM12 colon, 99 µM; in the assay with T-47D breast, greater than 100 µM; in the assay on NCI/ADR-RES ovarian, greater than 100 µM; with HCT-15 colon it was greater than 100 µM. For the same compound, the TGI in the assay with RPMI-8226 leukemia and with DU-145 prostate was greater than 100 µM throughout.
`COc1ccc(/C=C/C(=O)c2sc(-n3nc(-c4ccccc4)cc3-c3ccccc3)nc2C)cc1`: the GI50 with SW-620 colon, in the assay on OVCAR-8 ovarian, in the assay on NCI-H23 lung and with MALME-3M melanoma was greater than 100 µM in each case. Also, the TGI with SW-620 colon, in the assay with OVCAR-8 ovarian, in the assay on NCI-H23 lung, with KM12 colon, in the assay with HCT-15 colon and in the assay on RPMI-8226 leukemia was greater than 100 µM throughout. In the assay on MALME-3M melanoma, this compound returned a TGI greater than 100 µM.
For the compound `CN(CCCNC(=O)CCOCCOCCOCCNC(=O)Cc1ccc2ccc3cccc4ccc1c2c34)CCCNc1cc(-c2ccc3ccccc3c2)nc2ccccc12`, the GI50 with SW-620 colon was 0.247 µM; in the assay with OVCAR-8 ovarian, 0.341 µM; with NCI-H23 lung, 0.767 µM; with KM12 colon, 0.47 µM; with T-47D breast, 0.654 µM; in the assay with NCI/ADR-RES ovarian, 4.22 µM. Also, the GI50 with HCT-15 colon is 1.19 µM; in the assay on DU-145 prostate, 0.561 µM. Further, the TGI was determined as 0.654 µM in the assay on SW-620 colon; 0.735 µM in the assay on OVCAR-8 ovarian; 2.1 µM in the assay on NCI-H23 lung; 1.04 µM in the assay on KM12 colon; 1.34 µM with T-47D breast; 10.6 µM in the assay on NCI/ADR-RES ovarian. For the same compound, the results for the TGI in the assay with HCT-15 colon and in the assay with DU-145 prostate were 2.81 µM and 1.2 µM, respectively.
In the case of `Cn1nc(-c2ccccc2)c2c(/C=C/c3ccccc3)onc2c1=O`, the TGI in the assay with OVCAR-8 ovarian, in the assay on NCI-H23 lung, in the assay on KM12 colon, in the assay with HCT-15 colon, in the assay with RPMI-8226 leukemia and in the assay on MALME-3M melanoma was greater than 100 µM throughout.
In the case of `CC(=O)O[C@H]1CC[C@@]2(C)C(=CC[C@@H]3C2CC[C@]2(C)Nc4nc5ccccc5cc4CC32)C1` (stereo partly specified), the TGI was found to be 7.2 µM with SW-620 colon; 10.9 µM in the assay with OVCAR-8 ovarian; 26.6 µM in the assay with NCI-H23 lung; 12.9 µM with KM12 colon; 8.01 µM with HCT-15 colon; 42.1 µM in the assay on RPMI-8226 leukemia. For the same compound, the TGI in the assay on MALME-3M melanoma worked out at 21.7 µM.
Regarding `CC(=O)C1=C(O)C2C3c4c[nH]c5cccc(c45)CC3C(C)(C)N2C1=O` (stereo unspecified), the TGI in the assay with SW-620 colon was greater than 100 µM; in the assay with NCI-H23 lung it was 64.3 µM; in the assay with KM12 colon, greater than 100 µM; in the assay with HCT-15 colon, greater than 100 µM; in the assay with RPMI-8226 leukemia it was greater than 100 µM; with MALME-3M melanoma it was greater than 100 µM.
`CN1c2ccccc2N(C(=O)c2ccccc2)C(CC(=O)O)c2cccn21` (stereo unspecified): the TGI with SW-620 colon, with OVCAR-8 ovarian, with NCI-H23 lung, in the assay with KM12 colon, in the assay with HCT-15 colon and in the assay with RPMI-8226 leukemia was greater than 100 µM throughout. The compound further registered a TGI with MALME-3M melanoma greater than 100 µM.
In the case of `ClC(Cl)[Si]12OCCN(CCO1)CCO2`, the TGI in the assay with SW-620 colon, with OVCAR-8 ovarian, in the assay with NCI-H23 lung, in the assay with KM12 colon, in the assay on RPMI-8226 leukemia and with MALME-3M melanoma was greater than 100 µM throughout.

These data come from PubChem BioAssay (NCI).
